We go through one molecule from patent US11517556B2, “Composition for BKCa channel activation” (GWANGJU INSTITUTE OF SCIENCE AND TECHNOLOGY, priority 2016, dated 2022).

SMILES strings stand for the structures.

The test concerns the target T1, rat BKCa channel α-subunit (rSlo1) (Rattus norvegicus, UniProt Q62976).
T1 construct: expressed in transfected cells; host or cells: Xenopus laevis oocytes injected with cRNA (vector pNBC1.0)
As to the kind of experiment: Macroscopic current patch-clamp recording, Xenopus oocyte excised patches. It is filed as cell-based. From the text: Xenopus laevis oocytes heterologously expressing a BKCa channel α-subunit (Slo1) were used for electrophysiological recording. Subcloning and functional expression of the rat BKCa channel α-subunit using the oocyte expression vector pNBC1.0 has been reported (Ha et al., 2000). Sequence information of Slo1 used in the present disclosure is published in GenBank as expression number AF135265. Plasmid DNA was linearized using Notl restriction enzyme, and complementary RNA (cRNA) was synthesized using T7 RNA polymerase in the presence of nucleoside triphosphate and cap analog m7G(5′)ppp(5′)G from a linear form of DNA using mMessage Machine (Ambion).
Oocytes from stages V to VI were surgically removed from ovarian lobes of anesthetized X. laevis (Xenopus I, Dexter, Mich.). The removed oocytes were transferred to a Ca^2+-free oocyte ringer's (OR) culture medium (86 mM NaCl, 1.5 mM KCl, 2 mM MgCl2 and 10 mM HEPES, pH 7.6). The oocytes were cultured in Ca^2+-free OR medium containing 3 mg/ml collagenase (Worthington Biochemicals) for 1 hour and 30 minutes to 2 hours. This removed the follicular cell layer of the oocyte. Then, the oocytes were widely washed with Ca^2+-free OR culture medium and ND-96 medium (96 mM NaCl, 2 mM KCl, 1.8 mM CaCl2, 1 mM MgCl2, 5 mM HEPES, and 50 µg/ml gentamycin, pH 7.6). The washed oocytes were stored at 18° C. in ND-96 medium. Before oocyte was used, the oocyte was stabilized for at least one day. After the stabilization, approximately 50 ng of synthesized cRNA in 50 nl of nuclease-free water was injected into each oocyte for macroscopic current recording, and approximately 1 ng of synthesized cRNA in 50 nl of nuclease-free water was injected into each oocyte for single-channel recording using a micro-dispenser (Drummond Scientific, Broomall, Pa.). The cRNA-injected oocytes were cultured in ND-96 medium for 1 to 3 days at 18 degree C. Immediately prior to the patch-clamp experiment, the oocyte's vitelline membrane was manually removed with fine forceps.
[…] Patch pipettes were prepared from borosilicate and glass (WPI, Sarasota, Fla.). The pipettes were fire-polished with a resistance of 2 to 4 MΩ for patch recording. For single-channel recording, the patch pipettes were fire-polished with 4 to 8 MΩ resistors. To reduce electrical noise, the pipettes were coated with beeswax. Using an Axopatch 200B amplifier (Axon Instruments), the channel current was amplified. Then, the current was low-pass filtered at 1 kHz using a four-pole Bessel filter. Then, the current was digitized at a rate of 10 points/ms using a Digidata 1200A (Axon Instruments).
A single BKCa channel was readily activated by a membrane potential simply transferred at 100 mV at a high concentration of intracellular Ca^2+. For the single-channel assay, the switching between the closed and open conditions was determined by setting a potency at a half of a unitary current amplitude. To determine the single-channel conductance of the expressed channel, the average amplitude of the channel current was obtained from the histograms fitted with Gaussian distributions. An average current for a membrane-pass voltage is shown. A slope-conductance values were obtained from linear regression. The macroscopic current of the expressed BKCa channel was activated by a voltage-clamp pulse delivered from a holding potential of −100 mV at 10 mV increment to a membrane potential of typically −80 to 200 mV, A dwell-time of recorded open and close events for the single BKCa channel was analyzed using a linear histogram method. The dwell-time distribution was fitted into a single index using simplex-least-squares fitting methods (Clampfit, Axon Instruments). A peak in the dwell-time distribution was located at a time-constant of an exponential component.
To prevent activation of endogenous calcium-activated chloride channels, solutions for single and macroscopic channel recording contained gluconate as a non-permeant negative ion. […]
A general note: Patch clamp records ionic current or voltage across a cell membrane.

The mark [1] stands for this setting: 5 μM, outside-out, 3 μM intracellular Ca2+, double-exponential fit.
The mark [2] stands for this setting: after removal of 5 μM kurarinone, outside-out.

T1 sequence (Q62976 whole entry): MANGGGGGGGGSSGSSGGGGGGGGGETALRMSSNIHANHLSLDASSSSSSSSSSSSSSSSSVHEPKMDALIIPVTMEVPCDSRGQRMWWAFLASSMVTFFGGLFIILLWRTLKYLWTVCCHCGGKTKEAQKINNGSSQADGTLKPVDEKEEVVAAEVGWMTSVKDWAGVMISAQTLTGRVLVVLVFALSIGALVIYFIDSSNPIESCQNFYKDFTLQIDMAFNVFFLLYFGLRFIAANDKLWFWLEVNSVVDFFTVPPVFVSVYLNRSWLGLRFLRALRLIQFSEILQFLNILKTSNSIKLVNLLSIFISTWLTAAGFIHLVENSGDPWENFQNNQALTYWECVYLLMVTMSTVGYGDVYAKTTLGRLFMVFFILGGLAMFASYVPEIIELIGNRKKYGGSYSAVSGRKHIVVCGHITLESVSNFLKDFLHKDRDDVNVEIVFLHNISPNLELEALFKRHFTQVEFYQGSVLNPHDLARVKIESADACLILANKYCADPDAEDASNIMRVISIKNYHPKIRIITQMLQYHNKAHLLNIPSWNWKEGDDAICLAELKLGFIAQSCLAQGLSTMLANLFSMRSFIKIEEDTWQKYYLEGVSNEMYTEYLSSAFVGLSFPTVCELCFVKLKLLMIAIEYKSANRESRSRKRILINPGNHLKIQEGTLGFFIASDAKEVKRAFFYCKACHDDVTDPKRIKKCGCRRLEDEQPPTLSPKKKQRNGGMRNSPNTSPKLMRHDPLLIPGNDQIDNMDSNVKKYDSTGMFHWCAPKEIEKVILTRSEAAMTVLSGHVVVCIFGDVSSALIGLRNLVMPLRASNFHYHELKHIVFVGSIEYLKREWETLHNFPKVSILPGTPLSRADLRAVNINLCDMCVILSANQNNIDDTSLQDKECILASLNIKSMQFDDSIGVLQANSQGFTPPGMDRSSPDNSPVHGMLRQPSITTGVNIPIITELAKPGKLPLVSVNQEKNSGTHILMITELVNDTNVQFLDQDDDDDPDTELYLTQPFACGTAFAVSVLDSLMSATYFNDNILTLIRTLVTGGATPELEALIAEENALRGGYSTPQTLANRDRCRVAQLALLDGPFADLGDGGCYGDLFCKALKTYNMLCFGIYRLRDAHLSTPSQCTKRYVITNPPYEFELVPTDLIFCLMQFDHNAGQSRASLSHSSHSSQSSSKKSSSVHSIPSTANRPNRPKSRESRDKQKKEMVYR

`C=C(C)[C@H](CC=C(C)C)Cc1c(O)cc(OC)c2c1O[C@H](c1ccc(O)cc1O)CC2=O` [kurarinone]: the “activation time-constant (τactivation)” value (0, 5, 10, 20 μM) was “not significantly increased”. Besides, the effect on tail-current result (5 μM on the extracellular surface, outside-out patch, 3 μM intracellular Ca2+) is “strongly potentiates the tail-current”. Also, under setting [1], the “association time-constant, fast phase (τfast) of potentiation” value came out at 1.47 ± 0.34 s and the “association time-constant, low-speed phase (τslow) of potentiation” value amounted to 64.9 ± 8.8 s. Moreover, for the setting “20 μM”, the “maximum conductance relative to vehicle control” value stood at 1.8 times. Also, under “20 μM vs vehicle”, the “shift of V1/2 in the negative direction” value is “approximately 80 mV”. Moreover, the “half-active voltage (V1/2) of G-V relationship” value (20 μM, 3 μM [Ca2+]i, vehicle 107.4±2.2 mV) is recorded as 27.7±3.0 mV. In addition, the “maximum conductance (G/Gmax)” value (20 μM, normalized to vehicle maximum) was 1.35. Under setting [2], the “dissociation time-constant, fast phase of de-potentiation” value amounted to 2.78 ± 0.95 s and the “dissociation time-constant, slow phase of de-potentiation” value came to 90.06 ± 12.21 s. The “change in BKCa channel current on treatment from the inside of the cell” value (excised inside-out patch recording) is on record as “no significant change”. Also, the deactivation rate result (increasing concentrations up to 20 μM, voltage-dependent) was “dramatically decreased”.
